# Source: patent EP1745783A1, “Substituted pyrazoline compounds, their preparation and use as medicaments” (Laboratorios del Dr. Esteve S.A., priority 2005, dated 2007)
# What was measured:
# cannabinoid receptors [1] = experiment: Mouse tetrad model, antagonistic effect against Win 55212-2; type: in vivo, Male NMRI mice; conditions: 5 mg/kg i.v. prior to Win 55212-2 in a dose of 1,25mg/kg i.v., mice
# From the text: (§1) Substances with affinity for cannabinoid receptors are known to produce a wide range of pharmacological effects. It is also known that intravenous administration of a substance with affinity for cannabinoid receptors in mice produces analgesia , hypothermia, sedation and catalepsy. Individually, none of these effects can be considered as proof that a tested substance has affinity for cannabinoid-receptors, since all of these effects are common for various classes of centrally active agents. However, substances, which show all of these effects, i.e. substances that are active in this so-called tetrad model are considered to have affinity for the cannabinoid receptors. It has further been shown that cannabinoid receptor antagonists are higly effective in blocking the effects of a cannabinoid agonist in the mouse tetrad model.
# (§2) The tetrad model is described, for example, in the publication of A. C. Howlett et al, International Union of Pharmacology XXVII. Classification of Cannabinoid Receptors, Pharmacol Rev 54, 161-202 , 2002 and David R. Compton et al., "In-vivo Characterization of a Specific Cannabinoid Receptor Antagonist (SR141716A) :Inhibition of Tetrahydrocannbinol- induced Responses and Apparent Agonist Activity", J. Pharmacol. Exp. Ther. 277 , 2, 586-594, 1996. The corresponding parts of the description are hereby incorporated by reference. […]
# (§3) Before testing in the behavioral procedures given below, mice are acclimatized to the experimental setting. Pre-Treatment control values are determined for analgesia hot plate latency (in seconds), rectal temperature, sedation and catalepsy.
# In order to determine the antagonistic activity the identical procedure is used as for the determination of the agonistic effects, but with the difference that the substance to be evaluated for its antagonistic activity is injectected 5 minutes before the intravenous injection of 1.25 mg/kg Win-55,212 a known cannabinoid-receptor agonist.
# (§4) The hot plate analgesia is determined according to the method described in Woolfe D. et al. "The evaluation of analgesic action of pethidine hydrochloride (Demerol)", J. Pharmacol. Exp. Ther. 80, 300-307,1944. […]
# (§5) The mice are placed on a hot plate (Harvard Analgesimeter) at 55 ± 0.5 °C until they show a painful sensation by licking their paws or jumping and the time for these sensations to occur is recorded. This reading is considered the basal value (B). […]
# (§6) Fifteen minuts after the administration of the substance to be tested, the mice are again placed on the hot plate and the afore described procedure is repeated. This period is called the post-treatment reading (PT).
# (§7) The degree of analgesia is calculated from the formula : %MPE of Analgesia = (PT-B)/(PC-B) × 100 [formula] […]
# cannabinoid receptors [2] = experiment: Mouse tetrad model, agonistic effect; type: in vivo, Male NMRI mice; conditions: 5 mg/kg i.v., mice
# From the text: as §1, §2, §3
# In order to determine the agonistic activty of the substance to be tested, the mice are injected intravenously with the substance to be tested or the vehicle alone. 15 minutes after injection, latency in hot plate analgesia is measured. Rectal temperature, sedation and catalepsy are measured 20 minutes after injection.
# as §4, §5, §6, §7
smiles,measurement,setting,value
"O=C(NN1CCCCC1)C1=NN(c2ccc(Cl)cc2Cl)C(c2ccc(Cl)cc2)C1 (centres unmarked) [Example 1, N-piperidinyl-5-(4-chlorophenyl)-1-(2,4-dichlorophenyl)-4,5-dihydro-1H-pyrazole-3-carboxamide]",Antagonistic Effect A: Hot-Plate test,cannabinoid receptors [1],74
same,Antagonistic Effect B: Hypothermia,cannabinoid receptors [1],100
same,Antagonistic Effect C: Catalepsy,cannabinoid receptors [1],100
same,Antagonistic Effect D: Sedation,cannabinoid receptors [1],100
same,Agonistic effect A: Hot-Plate test,cannabinoid receptors [2],0
same,Agonistic effect B: Hypothermia,cannabinoid receptors [2],0
same,Agonistic effect C: Catalepsy,cannabinoid receptors [2],0
same,Agonistic effect D: Sedation,cannabinoid receptors [2],0
